ChEMBL document CHEMBL4513161, “CO-ADD screening of MMV (CH) - Pandemic Response Box” (2021)
Values after ≈ are worked out from the molar mass of the structure shown. Structures can show the parent of a compound that is named as a salt.

Assays:
HEK293 = assay: cells; format: functional, Homo sapiens, ATCC CRL1573; details: Homo sapiens, ATCC CRL1573, HEK293; ASSAY_TEST Inhibition of Cell Viability; detection method Resazurin; Fluorescence (ex560/em590); MEDIA DMEM with 10% FBS; plate type 384well; TC; CORNING #3712; time 18 hr; read-out: CC50
Pseudomonas aeruginosa [1] = assay: Antibacterial activity against Pseudomonas aeruginosa PAO397 [PAO1 d(mexAB-oprM) d(mexCD-oprJ) d(mexEF-oprN) d(mexJKL) d(mexXY) d(opmH)] (CO-ADD:GN_211); MIC in CAMBH media using NBS plates, by OD(600); format: functional; details: ASSAY_TEST Inhibition of Bacterial Growth, detection method Absorption (OD600), MEDIA CAMHB, plate type 384well, CORNING #3640, time 18 hr
Staphylococcus aureus = assay: microbe, parasite or virus in culture; details: ATCC 43300, 18 h, ASSAY_TEST Inhibition of Bacterial Growth, detection method Absorption (OD600), MEDIA CAMHB, plate type 384well, NBS, CORNING #3640
Description: Antibacterial activity against Staphylococcus aureus MRSA ATCC 43300 (CO-ADD:GP_020); MIC in CAMBH media, using NBS plates, by OD(600)

Escherichia coli = assay: microbe, parasite or virus in culture; details: ATCC 25922, 18 h, ASSAY_TEST Inhibition of Bacterial Growth, detection method Absorption (OD600), MEDIA CAMHB, plate type 384well, NBS, CORNING #3640
Description: Antibacterial activity against Escherichia coli ATCC 25922 (CO-ADD:GN_001); MIC in CAMBH media using NBS plates, by OD(600)

Klebsiella pneumoniae = assay: microbe, parasite or virus in culture; details: ATCC 700603, 18 h, ASSAY_TEST Inhibition of Bacterial Growth, detection method Absorption (OD600), MEDIA CAMHB, plate type 384well, NBS, CORNING #3640
Description: Antibacterial activity against Klebsiella pneumoniae MDR ATCC 70063 (CO-ADD:GN_003); MIC in CAMBH media using NBS plates, by OD(600)

Pseudomonas aeruginosa [2] = assay: microbe, parasite or virus in culture; details: ATCC 27853, 18 h, ASSAY_TEST Inhibition of Bacterial Growth, detection method Absorption (OD600), MEDIA CAMHB, plate type 384well, NBS, CORNING #3640
Description: Antibacterial activity against Pseudomonas aeruginosa ATCC 27853 (CO-ADD:GN_042); MIC in CAMBH media using NBS plates, by OD(600)

Acinetobacter baumannii = assay: microbe, parasite or virus in culture; details: ATCC 19606, 18 h, ASSAY_TEST Inhibition of Bacterial Growth, detection method Absorption (OD600), MEDIA CAMHB, plate type 384well, NBS, CORNING #3640
Description: Antibacterial activity against Acinetobacter baumannii ATCC 19606 (CO-ADD:GN_034); MIC in CAMBH media using NBS plates, by OD600

Candida albicans = assay: microbe, parasite or virus in culture; details: ATCC 90028, ASSAY_TEST Inhibition of Fungal Growth, detection method Absorption (OD530), plate type 384well, NBS, CORNING #3640
Description: Antifungal activity against Candida albicans ATCC 90028 (CO-ADD:FG_001); MIC in YNB media using NBS plates, by OD630

Description for Cryptococcus neoformans: Antifungal activity against Cryptococcus neoformans H99 ATCC 208821 (CO-ADD:FG_002); MIC in YNB media using NBS plates, by Resazurin OD(600-570)

MIC (Pseudomonas aeruginosa [1])	MIC (Cryptococcus neoformans)	MIC (Staphylococcus aureus)	MIC (Escherichia coli)	MIC (Klebsiella pneumoniae)	MIC (Pseudomonas aeruginosa [2])	MIC (Acinetobacter baumannii)	MIC (Candida albicans)	SMILES	CC50 (HEK293)
> 20 µM	> 20 µM	> 20 µM	> 20 µM	> 20 µM	> 20 µM	> 20 µM	> 20 µM	Cc1c[nH]c(=O)nc1NCc1ccccc1	> 20 µM
> 20 µM	> 20 µM	> 20 µM	> 20 µM	> 20 µM	> 20 µM	> 20 µM	> 20 µM	Clc1cccc(-c2nnc(-c3ccccc3)o2)c1	> 20 µM
> 20 µM	> 20 µM	> 20 µM	> 20 µM	> 20 µM	> 20 µM	> 20 µM	> 20 µM	CC[C@H](CO)Nc1nc(NCc2ccccc2)c2ncn(C(C)C)c2n1 [SELICICLIB]	> 20 µM
> 20 µM	> 20 µM	> 20 µM	> 20 µM	> 20 µM	> 20 µM	> 20 µM	> 20 µM	CCCCOC(=O)Nc1cc2nc(C3CCCCC3)[nH]c2cc1N(CC)CC	> 20 µM
> 20 µM	> 20 µM	> 20 µM	> 20 µM	> 20 µM	> 20 µM	> 20 µM	> 20 µM	Cc1nc2ccc(Cl)cc2c(-c2ccccc2)c1CC(=O)O	> 20 µM
> 20 µM	> 20 µM	> 20 µM	> 20 µM	> 20 µM	> 20 µM	> 20 µM	> 20 µM	CC(C)n1cnc2c(NCc3ccccc3)nc(NCc3ccccc3)nc21	> 20 µM
> 20 µM	> 20 µM	> 20 µM	> 20 µM	> 20 µM	> 20 µM	> 20 µM	> 20 µM	C[Si]1(C)CCN(Cc2cc(-c3ccc(Cl)cc3)n(-c3ccc(Cl)cc3)n2)CC1	> 20 µM
> 20 µM	> 20 µM	> 20 µM	> 20 µM	> 20 µM	> 20 µM	> 20 µM	> 20 µM	O=C(Cc1ccccc1F)Nc1nc2ccccc2[nH]1	> 20 µM
> 20 µM	> 20 µM	> 20 µM	> 20 µM	> 20 µM	> 20 µM	> 20 µM	> 20 µM	CCCCCc1ccc(C(=O)NCCn2cc(CCCCCc3c[nH]c(N)n3)nn2)cc1	> 20 µM
> 20 µM	> 20 µM	> 20 µM	> 20 µM	> 20 µM	> 20 µM	> 20 µM	> 20 µM	O=C1CCC(N2C(=O)c3ccccc3C2=O)C(=O)N1 (configuration not stated) [THALIDOMIDE]	> 20 µM
20 µM (≈ 6.61 µg/mL)	> 20 µM	> 20 µM	> 20 µM	> 20 µM	> 20 µM	> 20 µM	> 20 µM	CC(C)=CCC/C(C)=C/CNCCNC1C2CC3CC(C2)CC1C3 (configuration not stated) [SQ109]	19.5 µM
20 µM (≈ 14.7 µg/mL)	> 20 µM	> 20 µM	> 20 µM	> 20 µM	20 µM (≈ 14.7 µg/mL)	> 20 µM	> 20 µM	CC[C@H]1OC(=O)[C@H](C)[C@@H](O[C@H]2C[C@@](C)(OC)[C@@H](O)[C@H](C)O2)[C@H](C)[C@@H](O[C@@H]2O[C@H](C)C[C@H](N(C)C)[C@H]2O)[C@](C)(O)C[C@@H](C)C(=O)[C@H](C)[C@@H](O)[C@]1(C)O [ERYTHROMYCIN]	> 20 µM
> 20 µM	> 20 µM	> 20 µM	> 20 µM	> 20 µM	> 20 µM	> 20 µM	> 20 µM	COc1ccc2c(c1OC)C(=O)OC2C1c2c(cc3c(c2OC)OCO3)CCN1C (configuration not stated)	> 20 µM
5 µM	≤ 0.156 µM	≤ 0.156 µM	1.25 µM	5 µM	5 µM	10 µM	0.625 µM	CCCCC(CC)CNC(=N)NC(=N)NCCCCCCNC(=N)NC(=N)NCC(CC)CCCC (configuration not stated) [ALEXIDINE DIHYDROCHLORIDE]	2.61 µM
> 20 µM	> 20 µM	> 20 µM	> 20 µM	> 20 µM	> 20 µM	> 20 µM	> 20 µM	Cc1ccc(NC(=O)c2ccc(CN3CCN(C)CC3)cc2)cc1Nc1nccc(-c2cccnc2)n1 [IMATINIB]	> 20 µM
> 20 µM	> 20 µM	10 µM	> 20 µM	> 20 µM	> 20 µM	> 20 µM	> 20 µM	COc1cc(C)c2c(Oc3cccc(C(F)(F)F)c3)c(OC)cc(NC(C)CCCN)c2n1 (configuration not stated) [TAFENOQUINE SUCCINATE]	6.36 µM
> 20 µM	> 20 µM	> 20 µM	> 20 µM	> 20 µM	> 20 µM	> 20 µM	> 20 µM	O=c1cc(Nc2ccc3ccccc3c2)[nH]c(=O)[nH]1	> 20 µM
> 20 µM	> 20 µM	> 20 µM	> 20 µM	> 20 µM	> 20 µM	> 20 µM	> 20 µM	O=C(Nc1[nH]c(=O)ncc1F)c1ccccc1	> 20 µM
> 20 µM	> 20 µM	20 µM (≈ 5.07 µg/mL)	> 20 µM	> 20 µM	> 20 µM	> 20 µM	> 20 µM	O=C1c2cccc3cccc(c23)C(=O)N1CC1CO1 (configuration not stated)	4.49 µM
> 20 µM	> 20 µM	> 20 µM	> 20 µM	> 20 µM	> 20 µM	> 20 µM	> 20 µM	O=S(=O)(Nc1ccccc1)c1ccc(NC(=S)Nc2ccccc2)cc1	> 20 µM
> 20 µM	> 20 µM	> 20 µM	> 20 µM	> 20 µM	> 20 µM	> 20 µM	> 20 µM	N#Cc1cc([N+](=O)[O-])ccc1Oc1ccccc1Cl	> 20 µM
> 20 µM	> 20 µM	> 20 µM	> 20 µM	> 20 µM	> 20 µM	> 20 µM	> 20 µM	Cc1nc(N(C)C(=O)Cc2ccc(-c3ccccn3)cc2)sc1S(N)(=O)=O	> 20 µM
> 20 µM	> 20 µM	> 20 µM	> 20 µM	> 20 µM	> 20 µM	> 20 µM	> 20 µM	CN(C)c1[nH]c(=O)ncc1F	> 20 µM
> 20 µM	> 20 µM	> 20 µM	> 20 µM	> 20 µM	> 20 µM	> 20 µM	> 20 µM	O=[N+]([O-])c1cn(Cc2nc(O)nc(O)c2Br)cn1	> 20 µM

SMILES	MIC (Pseudomonas aeruginosa [1])	MIC (Cryptococcus neoformans)	MIC (Staphylococcus aureus)	MIC (Escherichia coli)	MIC (Klebsiella pneumoniae)	MIC (Pseudomonas aeruginosa [2])	MIC (Acinetobacter baumannii)	MIC (Candida albicans)	CC50 (HEK293)
CCC[C@H](NC(=O)[C@@H]1[C@H]2CCC[C@H]2CN1C(=O)[C@@H](NC(=O)[C@@H](NC(=O)c1cnccn1)C1CCCCC1)C(C)(C)C)C(=O)C(=O)NC1CC1	> 20 µM	> 20 µM	> 20 µM	> 20 µM	> 20 µM	> 20 µM	> 20 µM	> 20 µM	> 20 µM
CC(C)C(=O)N[C@H]1[C@H]([C@H](O)[C@H](O)CO)OC(C(=O)O)=C[C@@H]1N=[N+]=[N-]	> 20 µM	> 20 µM	> 20 µM	> 20 µM	> 20 µM	> 20 µM	> 20 µM	> 20 µM	> 20 µM
COC(=O)Nc1nc2ccccc2[nH]1 [CARBENDAZIM]	> 20 µM	> 20 µM	> 20 µM	> 20 µM	> 20 µM	> 20 µM	> 20 µM	> 20 µM	15.5 µM
CCN1CCN(Cc2nc3ccc([N+](=O)[O-])cc3c(=O)n2-c2ccccc2F)CC1	> 20 µM	> 20 µM	> 20 µM	> 20 µM	> 20 µM	> 20 µM	> 20 µM	> 20 µM	> 20 µM
